Test results taken from patent publication US20150210729A1, “MACROLIDE DERIVATIVES, PREPARATION THEREOF AND THERAPEUTIC USE THEREOF” (priority 2012, published 2015).
Values after ≈ are worked out from the molar mass of the structure shown. Where two headings read alike, the source gives them in different places.

Legend:
Streptococcus pneumoniae = assay: ATP bioluminescence test, inhibition of bacterial growth of Streptococcus pneumoniae (IC80); assay type: cell-based; conditions: read-out: IC80 (μM) S. pneumoniae
Method: Measurement of the Inhibitory Activity (IC80) of the Compounds According to the Invention Towards Streptococcus pneumoniae
The test used is a bioluminescence test, the aim of which is to measure the inhibition of bacterial growth of Streptococcus pneumoniae by quantification of the amount of adenosine triphosphate (ATP). Specifically, ATP is a major and mandatory energy intermediate of very many reactions of cell metabolism which characterizes live media.
ATP quantification is performed at the end of the test by using an enzyme, luciferase, which, in the presence of ATP and of a specific substrate, luciferin, produces quantifiable light.
Thus, in the presence of luciferin and luciferase at […] concentrations, the value obtained in relative light units (RLU) will make it possible, by means of a calibration, to estimate the amount of ATP and thus deduce the number of live bacteria at the end of the incubation period.
Thus, the more the RLU value obtained at the end of the test tends towards zero, the more the product inhibits the total growth of bacteria.
The results (Table 3) are expressed in IC80.

[1] = system: Mycobacterium tuberculosis H37Rv; assay: Alamar blue (MABA) test, MIC on Mycobacterium tuberculosis H37Rv; assay type: cell-based; conditions: minimum inhibitory concentration, Alamar blue, strain H37Rv, read-out: MIC (μM) MTb H37Rv
[2] = 80% inhibition of bacterial growth, ATP/luciferase readout

Row | SMILES | IC80 (Streptococcus pneumoniae; [2]) [µM] | MIC [1] [µM] | IC80 (Streptococcus pneumoniae) [µM]
1 | CON=C1C[C@@H](C)O[C@@H](O[C@@H]2[C@@H](C)[C@H](O[C@H]3C[C@@H](C)NC[C@H](C)O3)[C@@H](C)C(=O)O[C@H](C(C)CO[C@@H]3O[C@H](C)[C@@H](O)[C@@H](OC)[C@H]3OC)[C@H](C)[C@@H](OC(=O)CC(C)C)[C@@H](C)C(=O)[C@@](C)(OC(=O)NCc3ccccc3)C[C@@H]2C)[C@@H]1O (single isomer, unassigned) [Compound 8-a] | 1.84 | 0.56 (≈ 0.621 µg/mL) | –
2 | CON=C1C[C@@H](C)O[C@@H](O[C@@H]2[C@@H](C)[C@H](O[C@H]3C[C@H](C)N(C)C[C@H](C)O3)[C@@H](C)C(=O)O[C@H](C(C)CO[C@@H]3O[C@H](C)[C@@H](O)[C@@H](OC)[C@H]3OC)[C@H](C)[C@@H](OC(=O)CC(C)C)[C@@H](C)C(=O)[C@@](C)(OC(=O)NCCc3ccncc3)C[C@@H]2C)[C@@H]1O (stereo partly drawn) [Compound 2, (2R,3S,4R,5R,7S,9S,10S,11R,12S,13R)-2-(1-{[(2R,3R,4R,5R,6R)-5-hydroxy-3,4-dimethoxy-6-methyltetrahydro-2H-pyran-2-yl]oxy}propan-2-yl)-10-{[(2S,3R,6R)-3-hydroxy-4-(methoxyimino)-6-methyltetrahydro-2H-pyran-2-yl]oxy}-3,5,7,9,11,13-hexamethyl-6,14-dioxo-7-({[2-(pyridin-4-yl)ethyl]carbamoyl}oxy)-12-{[(2S,5S,7R)-2,4,5-trimethyl-1,4-oxazepan-7-yl]oxy}oxacyclotetradecan-4-yl 3-methylbutanoate] | 0.28 | 1.25 (≈ 1.42 µg/mL) | –
3 | CON=C1C[C@@H](C)O[C@@H](O[C@@H]2[C@@H](C)[C@H](O[C@H]3CC(C)N(CCF)C[C@H](C)O3)[C@@H](C)C(=O)O[C@H](C(C)CO[C@@H]3O[C@H](C)[C@@H](O)[C@@H](OC)[C@H]3OC)[C@H](C)[C@@H](OC(=O)CC(C)C)[C@@H](C)C(=O)[C@@](C)(OC(=O)NCc3ccccc3)C[C@@H]2C)[C@@H]1O (stereo partly drawn) [Compound 6, (2R,3S,4R,5R,7S,9S,10S,11R,12S,13R)-7-[(benzylcarbamoyl)oxy]-12-{[(2S,7R)-4-(2-fluoroethyl)-2,5-dimethyl-1,4-oxazepan-7-yl]oxy}-2-(1-{[(2R,3R,4R,5R,6R)-5-hydroxy-3,4-dimethoxy-6-methyltetrahydro-2H-pyran-2-yl]oxy}propan-2-yl)-10-{[(2S,3R,6R)-3-hydroxy-4-(methoxyimino)-6-methyltetrahydro-2H-pyran-2-yl]oxy}-3,5,7,9,11,13-hexamethyl-6,14-dioxooxacyclotetradecan-4-yl 3-methylbutanoate] | – | 0.91 (≈ 1.05 µg/mL) | –
4 | CON=C1C[C@@H](C)O[C@@H](O[C@@H]2[C@@H](C)[C@H](O[C@H]3C[C@H](C)N(CC(C)(C)O)C[C@H](C)O3)[C@@H](C)C(=O)O[C@H]([C@@H](C)CO[C@@H]3O[C@H](C)[C@@H](O)[C@@H](OC)[C@H]3OC)[C@H](C)[C@@H](OC(=O)CC(C)C)[C@@H](C)C(=O)[C@@](C)(OC(=O)NCc3ccccc3)C[C@@H]2C)[C@@H]1O [Compound 11] | – | 0.63 (≈ 0.744 µg/mL) | –
5 | CON=C1C[C@@H](C)O[C@@H](O[C@@H]2[C@@H](C)[C@H](O[C@H]3C[C@@H](C)N(CC(C)(C)O)C[C@H](C)O3)[C@@H](C)C(=O)O[C@H]([C@@H](C)CO[C@@H]3O[C@H](C)[C@@H](O)[C@@H](OC)[C@H]3OC)[C@H](C)[C@@H](OC(=O)CC(C)C)[C@@H](C)C(=O)[C@@](C)(OC(=O)NCc3ccccc3)C[C@@H]2C)[C@@H]1O [Compound 12] | – | 0.6 (≈ 0.708 µg/mL) | –
6 | CON=C1C[C@@H](C)O[C@@H](O[C@@H]2[C@@H](C)[C@H](O[C@H]3C[C@H](C)N(C)C[C@H](C)O3)[C@@H](C)C(=O)O[C@H]([C@@H](C)CO[C@@H]3O[C@H](C)[C@@H](O)[C@@H](OC)[C@H]3OC)[C@H](C)[C@@H](OC(=O)CC(C)C)[C@@H](C)C(=O)[C@@](C)(OC(=O)NC(C)(C)CNC(=O)c3cnc(O)cn3)C[C@@H]2C)[C@@H]1O [Compound 14] | 2.27 | 0.67 (≈ 0.821 µg/mL) | –
7 | CON=C1C[C@@H](C)O[C@@H](O[C@@H]2[C@@H](C)[C@H](O[C@H]3C[C@H](C)N(CCc4ccncc4)C[C@H](C)O3)[C@@H](C)C(=O)OC([C@@H](C)CO[C@@H]3O[C@H](C)[C@@H](O)[C@@H](OC)[C@H]3OC)[C@H](C)[C@@H](OC(=O)CC(C)C)[C@@H](C)C(=O)[C@@](C)(OC(=O)NCc3ccccc3)C[C@@H]2C)[C@@H]1O (some centres unmarked) [Compound 24] | 0.88 | 0.48 (≈ 0.582 µg/mL) | –
8 | CON=C1C[C@@H](C)O[C@@H](O[C@@H]2[C@@H](C)[C@H](O[C@H]3C[C@@H](C)N(C)C[C@H](C)O3)[C@@H](C)C(=O)OC([C@@H](C)CO[C@@H]3O[C@H](C)[C@@H](O)[C@@H](OC)[C@H]3OC)[C@H](C)[C@@H](OC(=O)CC(C)C)[C@@H](C)C(=O)[C@@](C)(OC(=O)NCCNc3ccnc4cc(Cl)ccc34)C[C@@H]2C)[C@@H]1O (some centres unmarked) [Compound 26] | 0.69 | 0.78 (≈ 0.965 µg/mL) | –
9 | CON=C1C[C@@H](C)O[C@@H](O[C@@H]2[C@@H](C)[C@H](O[C@H]3C[C@H](C)N(Cc4ccccc4)C[C@H](C)O3)[C@@H](C)C(=O)OC([C@@H](C)CO[C@@H]3O[C@H](C)[C@@H](O)[C@@H](OC)[C@H]3OC)[C@H](C)[C@@H](OC(=O)CC(C)C)[C@@H](C)C(=O)[C@@](C)(OC(=O)NCCNC(=O)c3cnc(O)cn3)C[C@@H]2C)[C@@H]1O (some centres unmarked) [Compound 33] | 1.34 | 0.35 (≈ 0.446 µg/mL) | –
10 | CON=C1C[C@@H](C)O[C@@H](O[C@@H]2[C@@H](C)[C@H](O[C@H]3CC(C)N(C4CC4)C[C@H](C)O3)[C@@H](C)C(=O)OC([C@@H](C)CO[C@@H]3O[C@H](C)[C@@H](O)[C@@H](OC)[C@H]3OC)[C@H](C)[C@@H](OC(=O)CC(C)C)[C@@H](C)C(=O)[C@@](C)(OC(=O)NCc3ccccc3)C[C@@H]2C)[C@@H]1O (some centres unmarked) [Compound 35] | 1.81 | 0.36 (≈ 0.413 µg/mL) | –
11 | CON=C1C[C@@H](C)O[C@@H](O[C@@H]2[C@@H](C)[C@H](O[C@H]3CC(C)N(CC(=O)Nc4ccc5ccc(C)nc5n4)C[C@H](C)O3)[C@@H](C)C(=O)O[C@H]([C@@H](C)CO[C@@H]3O[C@H](C)[C@@H](O)[C@@H](OC)[C@H]3OC)[C@H](C)[C@@H](OC(=O)CC(C)C)[C@@H](C)C(=O)[C@@](C)(OC(=O)NCc3ccccc3)C[C@@H]2C)[C@@H]1O (some centres unmarked) [Compound 51] | – | 0.29 (≈ 0.379 µg/mL) | –
12 | CON=C1C[C@@H](C)O[C@@H](O[C@@H]2[C@@H](C)[C@H](O[C@H]3C[C@@H](C)N(C)CC(C)O3)[C@@H](C)C(=O)O[C@H]([C@@H](C)CO[C@@H]3O[C@H](C)[C@@H](O)[C@@H](OC)[C@H]3OC)[C@H](C)[C@@H](OC(=O)CC(C)C)[C@@H](C)C(=O)[C@@](C)(OC(=O)NC(C)(C)CNS(=O)(=O)c3ccccc3)C[C@@H]2C)[C@@H]1O (some centres unmarked) [Compound 70] | – | 0.46 (≈ 0.572 µg/mL) | –
13 | CN[C@H](CC(C)C)C(=O)N[C@H]1C(=O)N[C@@H](CC(N)=O)C(=O)N[C@H]2C(=O)N[C@H]3C(=O)N[C@H](C(=O)N[C@H](C(=O)O)c4cc(O)cc(O)c4-c4cc3ccc4O)[C@H](O)c3ccc(c(Cl)c3)Oc3cc2cc(c3O[C@@H]2O[C@H](CO)[C@@H](O)[C@H](O)[C@H]2O[C@H]2C[C@](C)(N)[C@H](O)[C@H](C)O2)Oc2ccc(cc2Cl)[C@H]1O [vancomycin, reference compound] | – | – | 0.14
